Read-outs that look alike come from different tables or passages of the source.
Tests used:
[1] = test system: human peripheral blood lymphocytes (PBC); test: Mitogenesis assay, PMA plus ionomycin stimulated proliferation; format: cell-based; conditions: Lymphocyte, read-out: PMA
Text: (§4) Fresh peripheral blood lymphocytes (PBLs) from LeukoPak cells or whole blood from random normal blood donors (tested HIV-negative and hepatitis negative) are isolated and separated by density centrifugation over Histopaque 1077 (Sigma Chemical Co., St. Louis, MO). […] The human allogeneic B cell lines used for activation of the fresh PBLs are EBV-transformed lymphocytes from normal healthy adult donors with two completely different HLA haplotypes. All cell lines were routinely tested for the presence of Mycoplasma contamination using the Gibco Mycotect test kit and are Mycoplasma-free. Culture medium consists of RPMI 1640 (Gibco, Grand Island, NY) containing penicillin (50 U/ml) and streptomycin (50 µg/ml), L-glutamine 2 mM, 2 mercaptoethanol (5 x 10^-5), 10% heat-inactivated FCS and 10 mM HEPES.

FKBP = FKBP (Homo sapiens, UniProt P62942); test: Inhibition of FKBP PPIase (rotamase) activity, chymotrypsin-coupled assay; format: biochemical; conditions: apparent Ki
Text: The inhibition of the PPIase (rotamase) enzyme activity of the FKBP (apparent "Ki" values) can also be measured according to the methods described by either Harding, M.W. et al., Nature 341:758-760 (1989) or Siekierka, J.J. et al., Nature 341:755-757 (1989). The cis-trans isomerization of the […] peptide bond in a model substrate, N-succinyl-Ala-Ala-Pro-Phe-p-nitroanilide, is monitored spectrophotometrically in a coupled assay with chymotrypsin, which releases 4-nitroanilide from the trans form of the substrate. Fischer, G. et al., Nature 337:476-478 (1989). The inhibitory effect of the addition of different concentrations of inhibitor on the extent of the reaction is determined, and analysis of the change in first order rate constant as a function of inhibitor concentration yields an estimate of the apparent Ki value.

[2] = test system: CTLL-20 murine T cell line; test: IL-2 microassay, IL-2 dependent CTLL proliferation; format: cell-based; conditions: Mus musculus, read-out: CTLL
Text: as §4

[3] = test system: PBLs stimulated with LB human viral-transformed B lymphoblastoid cell line; test: MLR bioassay, PBLs stimulated with LB cells; format: cell-based; conditions: read-out: LB
Text: (§1) Fresh peripheral blood lymphocytes (PBLs) from LeukoPak cells or whole blood from random normal blood donors (tested HIV-negative and hepatitis negative) are isolated and separated by density centrifugation over Histopaque 1077 (Sigma Chemical Co., St. Louis, MO). The murine CTLL cytotoxic T cell line and the human Jurkat T cell line are from ATCC (CTLL-2 ATCC TIB214, JURKAT CLONE E6-1 ATCC TIBl52). The human allogeneic B cell lines used for activation of the fresh PBLs are EBV-transformed lymphocytes from normal healthy adult donors with two completely different HLA haplotypes. All cell lines were routinely tested for the presence of Mycoplasma contamination using the Gibco Mycotect test kit and are Mycoplasma-free. Culture medium consists of RPMI 1640 (Gibco, Grand Island, NY) containing penicillin (50 U/ml) and streptomycin (50 µg/ml), L-glutamine 2 mM, 2 mercaptoethanol (5 x 10^-5), 10% heat-inactivated FCS and 10 mM HEPES.
(§2) All chemical stocks were dissolved in DMSO.
(§3) Antigen activated proliferation of PBLs in a primary mixed lymphocyte reaction was assessed in the presence or absence of different concentrations of tested compounds and control drugs. 5 x 10^4 fresh PBLs were stimulated with 5 x 10^3 of Mitomycin C treated-allogeneic EBV-transformed […] cells, LB and JVM, in a final volume of 200 µl per well in 96-well round-bottomed plates (Mishell, B.B. and S.M. Shiigi, Selected Methods in Cellular Immunology W.H. Freeman and Co., San Francisco, CA (1980); Nelson, P.A. et al., Transplantation 50:286 (1990)). Cultures were pulsed on day 6, harvested 24 h later and counted as in previous section.

[4] = test system: PBLs stimulated with JVM human viral-transformed B lymphoblastoid cell line; test: MLR bioassay, PBLs stimulated with JVM cells; format: cell-based; conditions: read-out: JVM
Text: as §1, §2, §3

[5] = test system: human peripheral blood lymphocytes (PBC); test: Mitogenesis assay, OKT3 stimulated proliferation; format: cell-based; conditions: Lymphocyte, read-out: OKT3
Text: as §4

FK-506 binding protein = FK-506 binding protein (Homo sapiens, UniProt P62942); test: Competitive binding assay with [3H]dihydro-FK-506; conditions: binding to FKBP; apparent Kd, competition with [3H]dihydro-FK-506
Sequence of FK-506 binding protein (P62942 whole entry): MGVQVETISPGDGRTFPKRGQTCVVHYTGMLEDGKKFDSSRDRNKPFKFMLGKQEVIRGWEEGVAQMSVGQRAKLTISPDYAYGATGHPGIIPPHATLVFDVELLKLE

[6] = test system: T-cell clone stimulated with antibody to the T-cell receptor (TCR) and antibody to CD2; test: Table 3 assay 2: T-cell hybridoma + TCR/CD2 proliferation; format: cell-based; conditions: (3H)TdR incorporation, estimated
[7] = test system: fresh human peripheral blood lymphocytes; test: Table 3 assay 1: human PBL + OKT3 proliferation; format: cell-based; conditions: Lymphocyte, OKT3 antibody (anti-CD3) stimulation, (3H)TdR incorporation, estimated
CTLL cells = test: Table 3 assay 4: CTLL proliferation + IL-2; format: cell-based; conditions: Mus musculus, exogenous IL-2, (3H)TdR incorporation
T-cell hybridoma = test: Table 3 assay 3: apoptosis, activation-induced (anti-CD3) cell death; format: cell-based; conditions: at 1µg/ml; inhibition of activation-induced cell death, viable cell count
[8] = Bioavailability in rats, blood levels by HPLC; format: in vivo; conditions: rat, oral gavage, 50 mg/kg single dose, .05h, whole blood
[9] = Bioavailability in rats, blood levels by HPLC; format: in vivo; conditions: rat, 50 mg/kg single dose, whole blood
Experimental: Bioavailability of compound (20) was determined in rats. A single dose of 50 mg/kg was administered by oral gavage or intraperitoneal (IP) injection in a vehicle consisting of olive oil-10% ethanol. Thereafter, animals were sacrificed at 0.5, 1, 2, 4, 8 and 12 hr, blood was collected into sodium heparin and immediately frozen. Whole blood was extracted with acetonitrile-methanol (90/10 vol:vol) and the concentration of compound per ml of blood was determined by HPLC. […] After oral administration, blood levels of 0.5µM, 1µM, 2µM, 12µM, and 3µM were measured at .05h, 1h, 2h, 4h, and 8h, respectively.

[10] = inhibition of proliferation of cytotoxic T cells stimulated by IL-2
[11] = mixed lymphocyte reaction, LB stimulator cells, inhibition of proliferation
[12] = mixed lymphocyte reaction, JVM stimulator cells, inhibition of proliferation
[13] = OKT3 (10^-4 dilution final), inhibition of proliferation, 3H-thymidine

Sequence of FKBP (P62942 whole entry): as above

| SMILES | IC50 ([1]; 3 h) | Ki (FKBP) | IC50 [2, 10] | IC50 [3, 11] | IC50 [4, 12] | IC50 [5, 13] | Kd (FK-506 binding protein) | also measured |
| --- | --- | --- | --- | --- | --- | --- | --- | --- |
| COc1cc(C(=O)C(=O)N2CCCC[C@H]2C(=O)OC(CCCc2ccccc2)c2cccc(CO)c2)cc(OC)c1OC (stereo partly drawn) [Compound 37] | 2000 nM | 7 nM | 1200 nM | 1200 nM | 2200 nM | 5000 nM | 140 nM |  |
| C=CC[C@@H]1/C=C(\C)C[C@H](C)C[C@H](OC)[C@H]2O[C@@](O)(C(=O)C(=O)N3CCCC[C@H]3C(=O)O[C@H](/C(C)=C/[C@@H]3CC[C@@H](O)[C@H](OC)C3)[C@H](C)[C@@H](O)CC1=O)[C@H](C)C[C@@H]2OC [FK-506] |  |  |  |  |  |  |  | IC50 [6]: < 1 µg/mL; IC50 [7]: < 1 µg/mL; IC50 (CTLL cells): > 1 µg/mL |
| COc1cc(C(=O)C(=O)N2CCCC[C@H]2C(=O)OC(CCCc2ccccc2)CCCc2cccc(CO)c2)cc(OC)c1OC (stereo partly drawn) [Compound 35] | 2700 nM | 1 nM | 2500 nM | 2500 nM | 3000 nM | 6500 nM | 40 nM |  |
| COc1ccc(CCCC(CCCc2ccccc2)OC(=O)[C@@H]2CCCCN2C(=O)C(=O)c2cc(OC)c(OC)c(OC)c2)cc1 (stereo partly drawn) [Compound 17] |  | 3 nM |  |  |  |  | 68 nM | IC50 [1]: 4500 nM; IC50 ([2]; CTLL): > 10000 nM; IC50 [3]: 5500 nM; IC50 [4]: 7000 nM; IC50 [5]: 2500 nM |
| CO[C@H]1C[C@@H]2CC[C@@H](C)[C@@](O)(O2)C(=O)C(=O)N2CCCC[C@H]2C(=O)O[C@H]([C@H](C)C[C@@H]2CC[C@@H](O)[C@H](OC)C2)CC(=O)[C@H](C)/C=C(\C)[C@@H](O)[C@@H](OC)C(=O)[C@H](C)C[C@H](C)/C=C/C=C/C=C/1C [Rapamycin] |  |  |  |  |  |  |  | IC50 [6]: < 1 µg/mL; IC50 [7]: < 1 µg/mL; Apoptosis (T-cell hybridoma): Inactive at 1µg/ml; IC50 (CTLL cells): ~0.01 µg/mL |
| CC(C)Oc1cccc(C(=O)C(=O)N2CCCC[C@H]2C(=O)OC(CCCc2ccccc2)CCCc2cccnc2)c1 (stereo partly drawn) [Compound 29] | 10000 nM | 2 nM | 4000 nM | > 10000 nM | > 10000 nM | 8000 nM | 3 nM |  |
| COc1cc(C(=O)C(=O)N2CCCC[C@H]2C(=O)OC(CCCc2ccccc2)/C(C)=C/[C@H]2CC[C@H](O)CC2)cc(OC)c1OC (mixture of isomers) [Compound 8, (R and S)-(E)-1-[trans-(4-Hydroxycyclohexyl)]-2-methyl-6-phenyl-3-hex-1-enyl (S)-N-(3,4,5-trimethoxyphenylglyoxyl)pipecolate] | 4000 nM | 27 nM | 4000 nM | 10000 nM | 10000 nM | 5000 nM | 30 nM |  |
| COc1cc(C(=O)C(=O)N2CCCC[C@H]2C(=O)OC(CCCc2ccccc2)c2ccccc2)cc(OC)c1OC (stereo partly drawn) [Compound 6] | 8000 nM | 80 nM | 5000 nM | 10000 nM | 9000 nM | 8000 nM | 40 nM |  |
| COc1cc(C(=O)C(=O)N2CCCC[C@H]2C(=O)OC(CCCc2ccccc2)CCCc2cccc(C(=O)O)c2)cc(OC)c1OC (stereo partly drawn) [Compound 36] | > 10000 nM | 4 nM | > 10000 nM | > 10000 nM | 9000 nM | > 10000 nM | 20 nM |  |
| COc1cc(C(=O)C(=O)N2CCCC[C@H]2C(=O)OC(CCCc2ccccc2)CCCc2ccccn2)cc(OC)c1OC (stereo partly drawn) [Compound 20] | 1700 nM | 1 nM | 2000 nM | 2000 nM | 2500 nM | 2000 nM | 4 nM | concentration at 0.05 h [8]: 500 nM; concentration at 0.5 h ([9]; IP, 0.5h): 700 nM; concentration at 1 h ([9]; IP): 22000 nM; concentration at 2 h ([9]; IP): 225000 nM; concentration at 4 h ([9]; IP): 45000 nM; concentration at 8 h ([9]; IP): 1000 nM; concentration at 1 h ([9]; oral gavage): 1000 nM; concentration at 2 h ([9]; oral gavage): 2000 nM; concentration at 4 h ([9]; oral gavage): 12000 nM; concentration at 8 h ([9]; oral gavage): 3000 nM |
| COc1cc(C(=O)C(=O)N2CCCC[C@H]2C(=O)OC(CCCc2ccccc2)CCCc2ccc(CO)cc2)cc(OC)c1OC (stereo partly drawn) [Compound 26] | 3000 nM | 4 nM | 4000 nM | 3000 nM | 2500 nM | 1000 nM | 19 nM |  |
| COc1ccc(CCC(CCCc2ccccc2)OC(=O)[C@@H]2CCCCN2C(=O)C(=O)c2cc(OC)c(OC)c(OC)c2)cc1 (stereo partly drawn) [Compound 13] | 8000 nM | 4 nM | 9000 nM | > 10000 nM | > 10000 nM | 10000 nM | 27 nM |  |

From EP0584223B1, “NOVEL IMMUNOSUPPRESSIVE COMPOUNDS” (VERTEX PHARMACEUTICALS INCORPORATED, priority 1991, dated 1992)
